Reference: paper PMC12011790, “Synergistic chemo-immunotherapy for osteosarcoma via a pH-responsive multi-component nanoparticle system” (Frontiers in Pharmacology, 2025)

How the values were obtained:
[1] = test system: LM8 murine osteosarcoma cells; assay: CCK-8 cell viability; assay type: cell-based; conditions: 48 h, pH not stated, mean ± SD, n = 3
Procedure: The LM8 murine osteosarcoma cell line, derived from C3H/He mice, was purchased from HyCyte™ (Suzhou, China). LM8 cells were maintained in Dulbecco’s modified Eagle’s medium (DMEM, Gibco, NY, United States) supplemented with 10% fetal bovine serum (FBS, Gibco). Cells were cultured at 37°C in an incubator under 5% CO2.
LM-8 cells were seeded at a density of 1 × 10^6 cells/mL in a 96-well plate. After 24 h incubation, the culture medium was replaced with 100 μL of medium containing serial dilutions of different treatment samples. After 48 h incubation, 10 μL of the CCK-8 reagent (Dojindo, Kyushu, Japan) was added into each well and incubated for further 2 h at 37°C. The absorbance of each sample was measured at 450 nm using a multifunction microplate reader (Biotek, VT, United States).

LM8 cells [2] = assay: Calreticulin (CRT) surface exposure, flow cytometry; assay type: cell-based, murine; conditions: 10 μM DOX or equivalent, 24 h, mean ± SEM by Figure 3 legend
Procedure: (§1) The immunogenic cell death (ICD) biomarkers, including calreticulin (CRT), high-mobility group box 1 (HMGB1), and adenosine triphosphate (ATP), were analyzed. LM-8 cells were seeded in 24-well plates at a density of 1 × 10^5 cells per well, and the cells were allowed to grow to an appropriate confluence.
After treatment, the cells were digested, collected, and washed twice with cold PBS. To determine the surface expression of CRT, the cells were blocked with CD16/32 antibody for 10 min, incubated with Alexa 488-anti-CRT antibody (EPR3924, 1:500 v/v, Abcam) for 15 min at 4°C, washed once with PBS, resuspended with PBS, and detected by flow cytometry.

LM8 cells [3] = assay: Extracellular ATP release, bioluminescence kit; assay type: cell-based, murine; conditions: LM8 culture supernatant, 10 μM DOX or equivalent, 24 h, mean ± SEM by Figure 3 legend
Procedure: as §1
On the other hand, additional sets of cells received identical treatments were employed to determine the released HMGB1 and ATP. Briefly, culture supernatant was collected and centrifuged to remove cell debris. Subsequently, the extracellular HMGB1 was quantified using an enzyme-linked immunosorbent assay (ELISA) kits (R&D systems, China), whereas the supernatant ATP was quantified using a bioluminescence kit (No. S0026, Beyotime, China) and measured by a multifunction microplate reader.

LM8 osteosarcoma = assay: Antitumor efficacy in LM8-bearing osteosarcoma model; assay type: in vivo; conditions: LM8-bearing C3H/HeJ mice, tail vein, DOX equivalent 10 mg/kg every other day, 7 doses, n = 5
Procedure: To investigate the in vivo antitumor effects, male C3H/HeJ mice (8–10 weeks old) were purchased from GemPharmatech (Nanjing, China). All animal experiments were conducted with the relevant institutional guidelines of Jiangsu University, and were approved by the Institutional Animal Care And Use Committees of Jiangsu University (UJS-IACUC-2024080202).
[…] LM8-bearing OS model was established by injected subcutaneously 1 × 10^7 LM8 cells into the backs of mice. Tumor growth was allowed to proceed for approximately 7 days prior to treatment until the tumors reached a measurable size. Tumor size was monitored using a caliper, with tumor volume calculated according to the formula: (length × width^2)/2.
(§2) Each group received the corresponding treatment via tail vein injection, with a DOX equivalent dose of 10 mg/kg administered every other day for a total of 7 doses. Tumor volume and mouse body weight were recorded every other day during the treatment. On day 14, the mice were euthanized under anesthesia, and the tumors were excised and weighed for further analysis. The tumor was further stained with hematoxylin and eosin (H&E) after mice sacrificed.

[4] = Body weight during treatment (systemic toxicity); assay type: in vivo, C3H/HeJ mice; conditions: LM8-bearing mice; tail vein, DOX equivalent 10 mg/kg every other day, 7 doses
Procedure: as §2

[5] = test system: immune cell populations in the tumor, and tumor-draining lymph nodes; assay: Flow cytometric immune cell profiling of tumor and tumor-draining lymph nodes; assay type: in vivo, C3H/HeJ mice; conditions: post-treatment, flow cytometry
Description: Flow cytometry was applied to characterize the change in immune cell populations in the tumor, and tumor-draining lymph nodes (TDLNs). Excised tumors were harvested, homogenized and consecutively strained through 70-μm filters to obtain single cell suspensions, while the lymph nodes were manually dissociated through a 40-μm filter to obtain a single cell suspension. Cells were stained with fluorescent antibodies to identify immune cell pollutions.
Single-cell suspensions of TDLNs were stained with CD11c (clone N418; Biolegend), CD80 (clone 16-10A1; Biolegend), CD86 (clone GL1; Biolegend) for the analysis of mature DCs.
Single-cell suspensions of tumor tissues were stained with CD3 (clone 145-2C11; BD), CD4 (clone RM4-5; BD), CD8 (clone 53–6.7; Biolegend), CD62L (clone MEL-14; Biolegend), or CD44 (clone 1M7; Biolegend) antibodies for flow cytometry analysis. For intracellular cytokine and marker staining, after extracellular staining, cells were fixed and permeabilized with BD Cytofix/Cytoperm kit (BD Biosciences) and incubated with fluorescently conjugated antibodies against IFNγ (clone XMG1.2; Biolegend) or granzyme B (clone GB11; Biolegend) antibodies. […] Samples were run on a Beckman Coulter Gallios™ flow cytometer and analyzed using FlowJo software.

[6] = cumulative doses exceeding 550 mg/m^2; ref Alberts and Garcia, 1997; Treat et al., 1990; cited from earlier work
Description: A major challenge in OS treatment lies in the toxicity associated with conventional chemotherapeutic agents. […] Although reducing DOX dosage can alleviate the cardiotoxicity, this reduction risks compromising the therapeutic efficacy, particularly its ability to induce immunogenic cell ...

[7] = Stability (retention) of the PD-1/PD-L1 peptide in PBS and FBS-containing PBS, HPLC; assay type: in vitro ADME; conditions: 48 h; for peptide content remaining: peptide conjugated in co-loaded nanoparticles, FBS-containing PBS (50% FBS), mean ± SD, n = 3, SD
Description: […] Peptide content was quantified using high-performance liquid chromatography (HPLC). This analysis aimed to determine peptide degradation in PBS and FBS-containing media, considering the potential influence of protease activity present in serum.

Row | Molecule | IC50 [1] | CRT exposure (% of cells) (LM8 cells [2]) | extracellular ATP level (LM8 cells [3]) | tumor growth (tumor volume) (LM8 osteosarcoma; 14 days) | tumor mass at end of study (LM8 osteosarcoma; day 14) | body weight change [4] | infiltrated CTLs (CD3+CD8+) in tumor tissue [5] | long-term survivors affected by cardiotoxicity [6] | peptide remaining intact ([7]; peptide conjugated as DSPE-PEG-peptide in co-loaded nanoparticles, PBS, 37°C, n = 3) | peptide content remaining ([7]; 25°C) | peptide content remaining ([7]; 37°C)
1 | COc1cccc2c1C(=O)c1c(O)c3c(c(O)c1C2=O)C[C@@](O)(C(=O)CO)C[C@@H]3O[C@H]1C[C@H](N)[C@H](O)[C@H](C)O1.Cl [free DOX, Doxorubicin hydrochloride] | 13.3 ± 1.24 µM | 73.04% ± 6.35% | 266.05 ± 42.73 nM | moderate reduction in tumor growth | moderate reductions in tumor mass | significant weight loss | moderate CTLs infiltration | approximately 30% |  |  | 
2 | CGGGGSHFSASYDKYAEKF [PD-1/PD-L1 targeting peptide] |  |  |  |  |  |  |  |  | over 90% | 78.57% ± 0.81% | 72.32% ± 1.26%
